Bridges are numbered along the chain shown (N, C = ends). Where no end group is shown, it is not given here.
Tests used:
[1] = target: T1, p75^NTR and TrkA (Mus musculus, UniProt P01139); assay: Binding of 125I-NGF to PC12 cells (p75NTR + TrkA); set-up: species or system rat; conditions: 120 min; for steady-state specific binding of 125I-NGF (0.5 nM) to p75NTR and TrkA: ± SEM
T1 construct: these cells express both NGF receptor types; endogenous in cells; host or cells: PC12 rat pheochromocytoma cells
T1 sequence (P01139 122-239): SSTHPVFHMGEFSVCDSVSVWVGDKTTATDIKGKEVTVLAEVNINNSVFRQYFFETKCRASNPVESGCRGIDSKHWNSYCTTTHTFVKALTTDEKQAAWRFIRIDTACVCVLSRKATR
Protocol: (§1) PC12 cells were grown in RPMI with 10% heat inactivated donor horse serum and 5% fetal calf serum. […] The tubes were incubated for 2 hr at 4° C. and 100 μl aliquots (providing triplicate data points for each sample) were transferred to 400 μl microcentrifuges containing 200 μl of 10% glycerol in HKR. Tubes were centrifuged for 2 minutes at 5,000 rpm, the tip containing the cell pellet cut off and radioactivity bound to the cells was determined.

[2] = tested on: T2, p75^NTR and TrkA; assay: Binding of 125I-NGF to PC12 cells (p75NTR + TrkA); set-up: species or system rat; conditions: for Inhibition of 125I-NGF binding: 100 μM, CaEDTA together with Zn2+
T2 construct: these cells express both NGF receptor types; endogenous in cells; host or cells: PC12 rat pheochromocytoma cells
T2 sequence (P01139 122-239): as above
Protocol: as §1

[3] = target: T3, NGF (Mus musculus, UniProt P01139); assay: NGF protomer crosslinking with BS3 (NGF conformation), metal ions; format: biochemical; conditions: for NGF monomer crosslinking by BS3: 0.1 nM 125I-NGF, CaEDTA together with Zn2+
T3 construct: homodimer
T3 sequence (P01139 122-239): as above
Protocol: For crosslinking NGF […], 0.4 mM BS^3 was added to the mixture and incubated for 30 minutes at 25° C. […] For CD studies, NGF (50 μg/ml) was dissolved in 50 mM Tris-HCl buffer and spectra recorded using a computer controlled Jasco J-600 spectropolarimeter. Samples were acquired in the absence or presence of Zn^2+ (100 μM) at 22° C. in a 2 mm quartz cell averaged over eight scans. Modification of His residues by DEPC was carried out as previously described, where the molar excess of DEPC added and the extent of reaction was determined by evaluating the loss of binding activity of the modified product.

[4] = tested on: PC12 cells; assay: NGF-dependent survival of PC12 cells; format: cell-based, rat; conditions: for NGF-mediated survival of PC12 cells: 100 μM, serum-free, CaEDTA together with Zn2+
Protocol: (§2) Effects of divalent ions on NGF mediated survival and toxicity was evaluated using a colorimetric assay for the lysosomal enzyme acid phosphatase to determine cell number (Connolly, D. T., Knight, M. B., Harakas, N. K, Wittwer, A. J. & Feder, J. Determination of the number of endothelial cells in culture using an acid phosphatase assay. Anal. Biochem. 152, 136-140 (1986); Ueda, Y., Walsh, E., Nakanishi H. & Yoshida, K. A. colorometric assay method for the evaluation of neurotrophic activity in vitro. Neurosci. Lett. 165, 203-207 (1994)). […] To evaluate toxicity, the cells were seeded and maintained without NGF in RPMI with 10% heat inactivated donor horse serum and 5% fetal calf serum in the presence of additives. Loss in viable cell number was determined and expressed as a percent of control. NGF rescues PC12 cells from cell death in serum-free medium(Greene, L. A. Nerve growth factor prevents the death and stimulates neuronal differentiation of clonal PC12 pheochromocytoma cells in serum-free medium. J. Cell Biol. 78, 747-755 (1978)). NGF-dependent survival was assessed by harvesting PC12 cells in balanced salt solution followed with washing by 4 cycles of suspension and centrifugation in serum-free RPMI prior to seeding in 96 well plates. After incubation with additives, medium was removed from the wells and cells washed once with 200 μl PBS. Buffer containing 0.1M sodium acetate pH 5.5, 0.1% Triton X-100 and 10 mM p-nitrophenyl phosphate (Sigma 104 phosphatase substrate) was added to each well (100 μl). Plates were incubated at 37° C. for 3 hours. The reaction was stopped by the addition of 10 μl/well of 1N sodium hydroxide and the color development measured at 405 nm using a microplate reader. The relationship between cell number and enzyme activity was linear over the range 1000 to 15,000 cells.
(§3) To explore the ability of other transition metals to influence the biological activities of NGF, a series of cations known to mimic in certain respects the binding of zinc to proteins were tested. […] For this reason these ions were not tested in NGF- dependant growth phenomena. […] As these studies appeared to indicate potentially complex results upon metal ions binding to NGF, a receptor crosslinking system where specific receptor types could be identified was utilized.

[5] = tested on: PC12 cells; assay: Toxicity to PC12 cells; format: cell-based, rat; conditions: for Toxicity (PC12 cell viability): 100 μM; for Toxicity to PC12 cells: in presence of serum, up to 100 μM
Protocol: as §2, §3

[6] = target: p75^NTR /TrkA (Mus musculus, UniProt P01139); assay: Receptor crosslinking of 125I-NGF with transition metal ions (receptor selectivity); format: binding; conditions: 100 μM
p75^NTR /TrkA (Mus musculus, UniProt P01139), sequence (P01139 122-239): as above
p75^NTR /TrkA (Mus musculus, UniProt P01139), sequence (P07174 30-425 partner): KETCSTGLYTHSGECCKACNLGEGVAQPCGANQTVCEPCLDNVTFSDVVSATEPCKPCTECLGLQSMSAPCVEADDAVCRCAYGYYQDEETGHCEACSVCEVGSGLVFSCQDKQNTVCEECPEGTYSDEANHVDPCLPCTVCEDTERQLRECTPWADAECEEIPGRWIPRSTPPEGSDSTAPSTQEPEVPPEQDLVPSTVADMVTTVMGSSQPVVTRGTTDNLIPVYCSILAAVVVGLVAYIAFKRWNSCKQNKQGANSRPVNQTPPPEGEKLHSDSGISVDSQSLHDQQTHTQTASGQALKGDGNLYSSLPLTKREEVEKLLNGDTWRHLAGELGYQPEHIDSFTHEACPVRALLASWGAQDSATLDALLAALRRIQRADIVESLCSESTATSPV
p75^NTR /TrkA (Mus musculus, UniProt P01139), sequence (P35739 33-799 partner): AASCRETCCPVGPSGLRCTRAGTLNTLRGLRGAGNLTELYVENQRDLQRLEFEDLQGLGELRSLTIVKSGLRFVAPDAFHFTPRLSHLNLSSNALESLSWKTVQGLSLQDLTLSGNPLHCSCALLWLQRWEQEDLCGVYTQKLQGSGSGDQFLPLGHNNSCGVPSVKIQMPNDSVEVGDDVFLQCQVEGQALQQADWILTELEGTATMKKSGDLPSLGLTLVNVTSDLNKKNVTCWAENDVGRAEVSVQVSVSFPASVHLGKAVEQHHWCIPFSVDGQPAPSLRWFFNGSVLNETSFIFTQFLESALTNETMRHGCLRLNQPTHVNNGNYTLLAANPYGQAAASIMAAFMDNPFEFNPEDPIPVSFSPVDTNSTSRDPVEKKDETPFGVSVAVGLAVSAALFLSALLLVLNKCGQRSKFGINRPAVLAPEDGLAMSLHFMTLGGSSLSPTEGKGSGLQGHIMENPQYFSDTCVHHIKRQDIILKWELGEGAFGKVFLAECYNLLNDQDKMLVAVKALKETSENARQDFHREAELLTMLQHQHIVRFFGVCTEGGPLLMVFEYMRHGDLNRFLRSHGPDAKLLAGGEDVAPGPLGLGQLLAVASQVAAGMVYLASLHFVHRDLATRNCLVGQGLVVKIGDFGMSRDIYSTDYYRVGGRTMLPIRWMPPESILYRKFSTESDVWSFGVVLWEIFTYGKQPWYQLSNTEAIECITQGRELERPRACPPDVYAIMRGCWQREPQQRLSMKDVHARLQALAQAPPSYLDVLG
Protocol: as §3

[7] = tested on: p75^NTR /TrkA; assay: as above; format: binding
p75^NTR /TrkA, sequence (P01139 122-239): as the sequence (P01139 122-239) above
p75^NTR /TrkA, sequence (P07174 30-425 partner): as the sequence (P07174 30-425 partner) above
p75^NTR /TrkA, sequence (P35739 33-799 partner): as the sequence (P35739 33-799 partner) above
Protocol: as §3

[8] = tested on: T4, TrkA; assay: Binding of 125I-NGF to TrkA on PC12 cells (p75NTR blocked with BDNF); set-up: species or system rat; conditions: 100 μM CaEDTA with 100 μM Zn2+; 40 nM BDNF; ± SEM; 120 min
T4 construct: Receptor cross-linking studies were performed on PC12 rat pheochromocytoma cells; endogenous in cells; host or cells: PC12 rat pheochromocytoma cells (ATCC CRL 1721)
T4 sequence (P01139 122-239): as the sequence (P01139 122-239) above
Protocol: as §1

[9] = tested on: TrkA receptor; assay: NGF-dependent TrkA phosphorylation in PC12 cells, metal ions; format: cell-based, rat; conditions: for NGF-induced TrkA phosphorylation: 100 μM, PC12 cells
Protocol: Zn^2+ and/or other additives were allowed to equilibrate with NGF for 2 hours at 4° C. prior to addition of cells. PC12 cells were used at 10^6 cells/ml and incubated with 40 pM NGF for 15 minutes at 37° C. At the conclusion of the reaction, cells were washed, lysed in TBS containing 10% glycerol, 1% Triton X-100, 1 mM PMSF, 10 μg/ml aprotinin, 1 μg/ml leupeptin and 500 μM orthovanadate (lysis buffer, 10^8 cells/ml). The cellular debris was removed by centrifugation and the soluble proteins incubated with an anti-TrkA cytoplasmic domain antibody. Antibody complexes were isolated by incubating with immobilized protein G (Pierce Ultralink; 70 μl of a 50% slurry) for 2 hours at 4° C. The solid phase was washed extensively with lysis buffer and the pellet dissolved in SDS sample buffer. Proteins were resolved using 6% SDS PAGE and Western analysis performed with anti-phosphotyrosine 4G10 (UBI) visualized with ECL (Amersham).

[10] = tested on: DRG neurons; assay: NGF-mediated neurite outgrowth of DRG neurons, metal ions; format: cell-based, chick; conditions: 100 μM
Protocol: Dissosiated cells enriched for sensory neurons were prepared from ED8 chick DRG as described (Dostaler, S. M. et al. Characterization of a distinctive motif of the low molecular weight neurotrophin receptor that modulates NGF-mediated neurite growth. Eur. J. Neurosci. 8, 870-879 (1996)). Neurons were seeded at a density of 800-1000 cells/well in Ham's F-12 containing 5% FCS and NGF at 10 pM into wells of Terasaki plates treated with polyysine. The cells were incubated with the indicated additives at 37° C. in a 5% CO2 atmosphere. The cells on the entire lower horizontal surface of the well were scored for neurite growth at 18-20 hours using an inverted microscope fitted with phase contrast optics. A neurite was scored if its caliber from the origin to terminal was constant and its length was equal to or greater than 1.5 cell body diameters. Neurite growth was corrected for background (no NGF).

[11] = tested on: PC12 cells; assay: Toxicity to PC12 cells; format: cell-based, rat
[12] = tested on: dorsal root ganglion (DRG) neurons; assay: NGF-dependent neurite growth of ED8 chick DRG neurons (FIG. 6, Terasaki plates); format: cell-based; conditions: concentrations of 500 μk (so in the source)
Protocol: FIG. 6 is a graph showing the ability of R11 to inhibit the activity of NGF in vitro using a biological assay system. […] Dissociated cells enriched for sensory neurons were prepared from embryonic day 8 (ED8) chick dorsal root ganglion (DRG) as described (Sutter et al., J. Biol. Chem. 254: 5972-5982 (1979)). Neurons were seed into wells of Terasaki plates treated sequentially with poly-D-lysine and laminin at a density of 800-1000 cells/well in "synthetic" Dulbecco's modified Eagle medium (Bottenstein et al., Proc. Natl. Acad. Sci. USA 76: 514-517 (1979)) containing 1% fetal calf serum and NGF at […]. The cells were incubated with the additives indicated at 37° C. in a 5% CO2 atmosphere At 18-20 hours, the cells were fixed in 4% formaldehyde in phosphate-buffered saline and scored for neurite growth. The cells on the entire lower horizontal surface of the well were counted using an inverted microscope fitted with phase contrast optics. A neurite was scored if its caliber from origin to terminal was constant and its length was equal to or greater than 1.5 cell body diameters. Neurite growth was corrected for background (no NGF) growth in the presence and absence of peptide.
Such a profile is not typical of a competitive inhibitor. That is, a different dose response profile would be expected if R11 were simply competing with NGF for binding to a receptor. Neither of the less constrained synthetic Intermediates of R11, i.e., R11 (linear) or R11 (monocyclic), was as effective in blocking NGF-dependent neurite growth concentrations up to 200 μM.

[13] = target: T3, NGF; assay: Cross-linking of NGF protomers in a cell-free system (Example 6); format: biochemical; conditions: R11 analogues, concentration not given

[Au+3] [Au^3+]
Total Binding to PC12 cells ([1]; 100 μM, 125I-NGF): 107 ± 4 % control | Prevention of 125I-NGF binding to PC12 cells [2]: did not show appreciable inhibition | NGF Protomer Conformation (active/inactive) ([3]; 100 μM): active | Antagonism of NGF-dependent survival ([4]; high (1 nM) or low (50 pM) NGF): ability to antagonize the NGF-dependant survival | Survival @ 50 pM NGF ([4]; rat, pc12 cells, 100 µM): 0.1 ± 9 % control | Survival @ 1 nM NGF ([4]; rat, pc12 cells, 100 µM): -8 ± 5 % control | Toxicity (PC12 cell viability) [5]: 102 ± 13 % control | Receptor Selectivity (p75NTR/TrkA) [6]: TrkA only | Blocking of NGF binding to TrkA and p75NTR in receptor crosslinking [7]: selective for blocking the binding of NGF to TrkA but did not prevent the binding of NGF to p75^NTR

O=C([O-])CN(CCN(CC(=O)[O-])CC(=O)[O-])CC(=O)[O-].[Ca+2].[Na+].[Na+] [CaEDTA, reference compound]
steady-state specific binding of 125I-NGF (0.5 nM) to p75NTR and TrkA ([1]; 100 μM CaEDTA with 100 μM Zn2+): 78 ± 19 % Control | Inhibition of 125I-NGF binding [2]: Inhibitory effects of Zn^2+ could also be prevented | steady-state specific binding of 125I-NGF (0.5 nM) to TrkA [8]: 87 ± 13 % Control | NGF monomer crosslinking by BS3 [3]: prevented the Zn^2+ effects | NGF-mediated survival of PC12 cells [4]: reversed | NGF-induced TrkA phosphorylation [9]: Neither Ca^2+, Mg^2+ nor CaEDTA had a significant effect | Reversal of Zn2+ inhibition of TrkA phosphorylation ([9]; CaEDTA 100 μM with Zn2+ 100 μM): reversed by CaEDTA

[Ca+2] [Ca^2+, reference compound]
steady-state specific binding of 125I-NGF (0.5 nM) to p75NTR and TrkA ([1]; 100 μM): 91 ± 7 % Control | Inhibition of 125I-NGF binding [2]: neither Ca^2+ nor Mg^2+ displayed significant inhibition | NGF monomer crosslinking by BS3 [3]: no effect on crosslinking efficiency | NGF-induced neurite extension [10]: no effect | NGF-mediated survival of PC12 cells [4]: no effect | Toxicity to PC12 cells [5]: not toxic | NGF-induced TrkA phosphorylation [9]: not detected

[Cd+2] [Cd^2+]
Toxicity (PC12 cell viability) [5]: 63 ± 10 % control | Toxicity to PC12 cells in serum-free conditions [11]: toxic to PC12 cells

[Co+2] [Co^2+]
Toxicity (PC12 cell viability) [5]: 52 ± 14 % control | Toxicity to PC12 cells in serum-free conditions [11]: toxic to PC12 cells

[Hg+2] [Hg^2+]
Toxicity (PC12 cell viability) [5]: 3 ± 0.8 % control | Toxicity to PC12 cells in serum-free conditions [11]: toxic to PC12 cells

[Mg+2] [Mg^2+, reference compound]
steady-state specific binding of 125I-NGF (0.5 nM) to p75NTR and TrkA ([1]; 100 μM): 88 ± 13 % Control | Inhibition of 125I-NGF binding [2]: neither Ca^2+ nor Mg^2+ displayed significant inhibition | NGF monomer crosslinking by BS3 [3]: no effect on crosslinking efficiency | NGF-induced neurite extension [10]: no effect | NGF-mediated survival of PC12 cells [4]: no effect | Toxicity to PC12 cells [5]: not toxic | NGF-induced TrkA phosphorylation [9]: not detected

BR11: same amino acid composition as R11, except that the CVC domain has been moved to appear at the N-terminus (CVCCRASNPVESGC; disulfide 1-14, 3-4)
Inhibition of NGF-mediated neurite growth [12]: did not inhibit NGF-mediated neurite growth | Cross-linking of NGF promoters (NGF dimer disruption assay) [13]: not effective in influencing the crosslinking of NGF promoters

SR11: identical amino acid composition to R11 except that the eleven N-terminal residues have been inverted to the naturally occurring NGF sequence 58-68 (CRASNPVESGCCVC; disulfide 1-14, 11-12)
Cross-linking of NGF promoters (NGF dimer disruption assay) [13]: equally etude in reducing crosslinking of NGF promoters as R11
